From patent US20050171195A1, “P2X7 antagonists for treating neuropathic pain” (priority 2003, published 2005) come the findings set out here.

One data set has as its target T1, P2X7 receptor (Homo sapiens, UniProt Q99572).
T1 construct: endogenous in cells; host or cells: THP-1 cells
T1 sequence (Q99572 1-595): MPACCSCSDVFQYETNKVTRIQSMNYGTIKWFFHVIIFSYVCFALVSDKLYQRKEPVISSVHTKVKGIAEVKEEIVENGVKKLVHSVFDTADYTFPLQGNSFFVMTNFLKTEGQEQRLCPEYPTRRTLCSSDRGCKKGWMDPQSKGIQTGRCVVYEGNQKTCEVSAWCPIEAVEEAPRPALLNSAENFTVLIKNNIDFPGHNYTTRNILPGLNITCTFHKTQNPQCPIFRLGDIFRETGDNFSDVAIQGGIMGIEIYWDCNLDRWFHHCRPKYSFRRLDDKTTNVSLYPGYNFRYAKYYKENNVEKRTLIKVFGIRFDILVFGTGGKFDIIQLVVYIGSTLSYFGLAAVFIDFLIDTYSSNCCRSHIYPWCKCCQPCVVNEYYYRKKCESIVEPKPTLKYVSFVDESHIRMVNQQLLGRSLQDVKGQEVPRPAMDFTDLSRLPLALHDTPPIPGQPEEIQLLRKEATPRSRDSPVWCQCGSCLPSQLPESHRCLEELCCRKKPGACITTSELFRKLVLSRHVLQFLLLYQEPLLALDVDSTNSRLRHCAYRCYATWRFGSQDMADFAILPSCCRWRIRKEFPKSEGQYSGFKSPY
Kind of data set: P2X7 mediated pore formation (YO-PRO dye uptake, FLIPR). Type of data set: cell-based. Conditions: THP-1 cells. The method, then:
P2X7 Mediated Pore Formation. Activation of the P2X7 receptor induces nonspecific pore formation and eventually cell lysis (Verhoef et al., The Journal of Immunology, Vol. 170, pages 5728-5738, 2003). Accordingly, the inhibitory activity of the antagonists of the present invention was determined by their capacity to inhibit the agonist-induced pore formation using the fluorescent dye YO-PRO (MW=629) and Fluorescence Imaging Plate Reader (FLIPR, Molecular Devices, Sunnydale, Calif.) in THP-1 cells. […] The YO-PRO iodide dye (1 mM in DMSO) was diluted to a final concentration of 2 μM in PBS (w/o Mg^2+ or Ca^2+) and then placed on the cells immediately prior to the agonist addition. Since the THP-1 cells are a non-adherent cell line, the cells were washed in PBS and loaded with the dye in a conical tube prior to spinning the cells onto poly-lysine-coated black-walled 96-well plates, which were utilized to reduce light scattering. […] The intensity of the fluorescence was captured by the CCD camera every 15 seconds for the first 10 minutes of agonist exposure followed by every 20 seconds for an additional 50 minutes with the data being digitally transferred to an interfaced PC. The exposure setting of the camera was 0.25 sec with an f-stop setting of 2. […]
benzoylbenzoic ATP [BzATP]: the “EC70 value for agonist activation” value stood at 50 µM.

Tested on in the next data set: not given
Test: not given
Settings: not given
Take `COc1ccc(NC(=NC#N)NC(NC(=O)c2ccc(Cl)cc2)C(C)(Cl)Cl)c(OC)n1` (stereo not drawn) [Example 51, 4-chloro-N-[2,2-dichloro-1-({(cyanoimino)[(2,6-dimethoxy-3-pyridinyl)amino]methyl}amino)propyl]benzamide]: the melting point (usually the temperature of the solid-liquid transition) lay within 162 to 163 °C. Same read-out and setting: the result for `CSc1ccc(CC(=O)NC(NC(=NC#N)Nc2cccc3ncccc23)C(C)(C)C)cc1` (stereo not drawn) [Example 31, N-(1-{[(cyanoimino)(5-quinolinylamino)methyl]amino}-2,2-dimethylpropyl)-2-[4-(methylthio)phenyl]acetamide] reads 188 to 189 °C; that for `Cc1ccccc1NC(=NC#N)NC(NC(=O)CCCc1ccccc1)C(C)(C)C` (stereo not drawn) [Example 18, N-[1-({(cyanoimino)[(2-methylphenyl)amino]methyl}amino)-2,2-dimethylpropyl]-4-phenylbutanamide], 153 to 154 °C; that for `CCSc1ccc(CC(=O)NC(NC(=NC#N)Nc2cccc3ncccc23)C(C)(C)C)cc1` (stereo not drawn) [Example 37, N-(1-{[(cyanoimino)(5-quinolinylamino)methyl]amino}-2,2-dimethylpropyl)-2-[4-(ethylthio)phenyl]acetamide], 189 to 190 °C. Still for that read-out and setting: the same measure for `Cc1ncccc1NC(=NC#N)NC(NC(=O)Cc1ccc(F)c(F)c1)C(C)(C)C` (stereo not drawn) [Example 1, N-[1-({(cyanoimino)[(2-methyl-3-pyridinyl)amino]methyl}amino)-2,2-dimethylpropyl]-2-(3,4-difluorophenyl)acetamide]: 58 to 60 °C.
